Experimental findings from patent publication US7420060B2, “Benzopyran derivatives substituted with a thioxobenzoxazole derivative, pharmaceutically acceptable salts thereof, their preparations and pharmaceutical compositions containing them” (Schaeffler KG, priority 2003, dated 2008) are described below.

Assay [1] has as its system ischemic heart isolated from white rat. Put plainly: Cardioprotective effect on isolated ischemic rat heart (Langendorff, 30 min global ischemia / 30 min reperfusion). To be noted: 10 μM; for LDH (concentration of lactate dehydogenase): after 30 min reperfusion; for EDP (left ventricular end diastolic pressure): after reperfusion, baseline set at 5 mmHg; for TTC (time to induce contraction / time to contracture): during 30 min global ischemia, first 5 mmHg increase in EDP; for LVDP × HR (left ventricular developed pressure × heart rate): reperfusion DP as % of pre-treatment DP, 30 min after reperfusion. The procedure: 100 mg/kg of sodium pentobarbital was injected in abdominal cavity of white male rats (300˜450 g, obtained form the experimental animal team of the Korea Research Institute of Chemical Technology) to anesthetize them. Then, an intravenous injection of 1000 U/kg of heparin was performed before taking out heart. Particularly, cannula(PE 240) was inserted in the trachea, and artificial respiration was tried upon the rat by using a rodent ventilator. Under that condition, aortic cannula was inserted in the aorta and heart was taken out under retrograde perfusion. The extracted heart was hung on Langendorff apparatus quickly and unnecessary tissues on heart were removed. Perfusion was induced under static pressure (85 mmHg) with 37° C. modified Krebs-Henseleit bicarbonate buffer (composition <mM/L>: 116 NaCl, 4.7 KCl, 1.1 MgSO4, 1.17 KH2PO4, 24.9 NaHCO3, 2.52 CaCl2, 8.32 Glucose, 2.0 Pyruvate) saturated with 95% O2/5% CO2. A metal cannula, to which a latex balloon filled with an ethanol-distilled water mixture (1:1 vol/vol) was linked, was inserted in left ventricle through pulmonary vein. Then, left ventricular pressure transmitted through the balloon was transduced by using pressure transducer, and amplified by using Plugsys bridge amplifier isovolumetrically. Then, the pressure was recorded in a recorder (Linearcorder mark 8 WR 3500). Thereafter, heart was stabilized for 15 minutes. Then, left ventricular end diastolic pressure (LVEDP) was given by 5 mmHg and such volume of the balloon was kept all through the experiments.
Baseline cardiac contractile function, heart rate (HR), and coronary flow (CF) were measured. Cardiac contractile function was calculated by […], yielding LVDP (left ventricular developed pressure). Double product RPP (rate-pressure product)(DP), another important parameter for indirectly assessing cardiac performance in Langendorff heart, whose cardiac output could not be measured ordinarily, was calculated by multiplying HR by LVDP. Throughout the experiment, total coronary blood flow was measured by the use of coronary flow probe (diameter: 1.0 mm) installed in aortic cannula with electromagnetic flowmeter. Temperature of heart was steadily maintained by immersing the heart at 37° C. in physiological saline solution to which 95% O2/5% CO2 was constantly supplied. After stabilization for 15 min, the hearts were pre-treated for 10 min with vehicle (0.04% DMSO) only or a compound of the present invention or the control material in the vehicle. Thereafter, cardiac contractile function, HR and CF were repeatedly measured. Global ischemia was induced by completely shutting off the perfusate for 30 min. Severity of ischemia was determined as the time to contracture (TTC, min) during global ischemia in which the first 5 mmHg increase in EDP was observed. Then, the hearts were reperfused and, 30 min later, contractile functions (LVDP, HR and CF) were repeatedly measured. After reperfusion was accomplished for 30 min, LDH (lactate dehydrogenase) was measured with a kit as a sensitive index for loss of cell viability.

Assay [2] concerns ischemic myocardial injury models prepared from white rats. As to the kind of experiment: Antiischemic activity in the anesthetized rat ischemic myocardial injury model (coronary occlusion 45 min / reperfusion 90 min). The format is in vivo. To be noted: 0.3 mg/kg, intravenous (femoral vein), 30 min before occlusion. The procedure: 75 mg/kg of sodium pentobarbital was injected in abdominal cavity of white male rats (350-450 g, Laboratory Animal Division, Korea Research Institute of Chemical Technology) to anesthetize them. After performing tracheotomy, artificial respiration was induced by 10 ml/kg of stroke volume and 60/min. of heart rate. Cannula was inserted in each of vena fermoralis and aorta fermoralis, through which medicines were administered and blood pressure was measured. In the meantime, since body temperature in a ischemic myocardial injury model was very important factor, directly influencing a result, the temperature of a rat was always kept at 37° C. by using a probe for measuring body temperature inserted in rectum and homeothermic blanket control unit. Mean arterial blood pressure and heart rate (HR) of the rat were measured all through the experiments. Statham P23XL pressure transducer (Grass Ins., MA., USA) was used for measuring blood pressure and ECG/RATE Coupler (Hugo Sachs Electronic, Germany) was used for measuring HR. In addition, all the changes were recorded successively by graphtec linearcorder chart recorder (Graphtec Linearcorder WR 3310, Hugo Sachs Electronic).
According to the method of Selye H, left coronary aorta was occluded as follows. Left thoracotomy was induced. That is, the chest of a rat was a little opened. The right chest of the anesthetized rat was pressurized by the middle finger of left hand, so that the heart was pushed out. The heart was fixed gently by the thumb and the index finger of the left hand. A stitch was carefully put on a part including left anterior descending coronary artery by a suture needle with operating thread (5-0 silk ligature), and the heart was quickly positioned again in thoracic cavity. Then, both ends of operating thread were exposed outside. Both ends of operating thread were passed through PE tube (PE100, 2.5 cm) and left for 20 minutes for stabilization. A vehicle or a medicine was administered through the cannula inserted in femoral vein, which was left for 30 minutes in order for the medicine to work thoroughly. BMS-180448 was used for a control group and the dosage of each test medicine and a control medicine was 0.3 mg/kg each. […]
The coronary artery was reoccluded according to the above method and 2 ml of 1% Evans blue solution was administered by intravenous injection. […] The surface of each slice was inputted in a computer by using Hi-scope, a compact micro vision system, and Image pro plus program, from which both normal blood flow tissue area stained by blue and non-stained area on each slice were measured. The ratio of non-stained area to the gross area of each slice was calculated, by which the weight of each slice was multiplied to calculate AAR (area at risk) of each slice. […]

The structures appear in SMILES notation.

In the case of `COC(OC)[C@]1(C)Oc2ccc([N+](=O)[O-])cc2[C@H](n2c(=S)oc3cccc(C)c32)[C@H]1O` [Example 6, (2R,3R,4S)-6-nitro-3,4-dihydro-3-hydroxy-2-dimethoxymethyl-2-methyl-4-(4-methyl-2-thioxobenzoxazol-3-yl)-2H-1-benzopyran], in assay [1], the “LDH (concentration of lactate dehydogenase)” value is recorded as 9.6 unit/g, the “EDP (left ventricular end diastolic pressure)” value is recorded as 6.3 mmHg, the “TTC (time to induce contraction / time to contracture)” value is 26.7 min and the “LVDP × HR (left ventricular developed pressure × heart rate)” value was determined as 74.3%. Besides, the “IZ/AAR(%) myocardial infarction size to area at risk” value in assay [2] worked out at 42.5%.
In the case of `COC(OC)[C@]1(C)Oc2ccc([N+](=O)[O-])cc2[C@H](n2c(=S)oc3ccccc32)[C@H]1O` [Example 1, (2R,3R,4S)-6-nitro-3,4-dihydro-3-hydroxy-2-dimethoxymethyl-2-methyl-4-(2-thioxobenzoxazol-3-yl)-2H-1-benzopyran], in assay [1], the “LDH (concentration of lactate dehydogenase)” value is 4.6 unit/g, the “EDP (left ventricular end diastolic pressure)” value was determined as 19.8 mmHg, the “TTC (time to induce contraction / time to contracture)” value worked out at 25.3 min and the “LVDP × HR (left ventricular developed pressure × heart rate)” value is given as 53.8%. Also, the “IZ/AAR(%) myocardial infarction size to area at risk” value in assay [2] was 39.6%.
